The text below walks through data of publication PMC12281487, “Discovery and Validation of a Novel Class of Necroptosis Inhibitors Targeting RIPK1” (ACS Chemical Biology, 2025).

The koff is a measure of how fast the partners let go of each other. A higher koff goes with fast dissociation. One may read the kon as a measure of how fast the partners come together.

The target of one assay is T1, kinase domain of RIPK1 (Homo sapiens, UniProt Q13546).
T1 construct: recombinant human kinase domain of RIPK1 [RIPK1 (8-322)-Avi-His]; His (C); made in house; host or cells: Sf21 insect cells (baculovirus, Bac-to-Bac), co-expressed with Cdc37
T1 sequence (Q13546 8-322): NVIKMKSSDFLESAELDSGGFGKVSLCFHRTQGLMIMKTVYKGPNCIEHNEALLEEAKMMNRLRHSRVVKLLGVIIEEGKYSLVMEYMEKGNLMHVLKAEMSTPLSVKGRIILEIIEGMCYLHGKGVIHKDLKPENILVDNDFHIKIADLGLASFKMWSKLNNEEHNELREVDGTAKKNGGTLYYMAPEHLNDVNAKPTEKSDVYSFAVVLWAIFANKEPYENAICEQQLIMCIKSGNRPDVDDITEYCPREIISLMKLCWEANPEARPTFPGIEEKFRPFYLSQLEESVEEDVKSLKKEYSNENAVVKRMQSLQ
Description: SPR binding assay. How it is done:
Biotinylated recombinant human kinase domain of RIPK1 [RIPK1 (8-322)-Avi-His] was produced in Sf21 cells using baculovirus infection (Bac-to-Bac system, Thermo Fisher Scientific). Briefly, the RIPK1 (8-322)-Avi-His baculovirus was inoculated into Sf21 cells at 1.5 × 10^6 cells/mL, with 1 mL of virus added per 500 mL of cells for P2 virus generation. The cells were grown at 27 °C, 140 rpm for 72 h. RIPK1 was co-expressed with Cdc37 at a 4:1 (RIPK1/Cdc37) v/v virus ratio in Sf21 cells by inoculation with P2 virus (25 mL per 500 mL bottle). The cells were grown at 27 °C while shaking at 140 rpm for 48 h before being harvested by centrifugation at 6500 rpm and 4 °C for 15 min and stored at −80 °C before further purification. 25 μM of Nec-1s (ab221984, Abcam) was added to the culture medium at time of viral infection to stabilize protein.
Briefly, RIPK1 kinase domain was immobilized on a streptavidin-coated sensor chip (Cytiva). The surface was washed with 10 mM NaOH, 1 M NaCl, followed by immobilization of the protein. […] The reference spot was treated as described, omitting the injection of RIPK1. Compound concentration series was injected over the immobilized protein in increasing concentrations using multi cycle or single cycle kinetics in running buffer (10 mM HEPES, 150 mM NaCl, 0.05% Tween20, 0.1% DMSO, pH 7.4). A 1:1 Langmuir interaction model was fitted to the experimental traces, enabling determination of k on, k off, and K D.
For orientation: Surface plasmon resonance follows binding to a sensor surface in real time, without labels.

The subject of assay [1] is RIPK1 Ser166 phosphorylation. In words: Western blot of RIPK1 Ser166 phosphorylation in I2.1 cells. Type of assay: cell-based, human. Particulars: prior treatment with 10 μM compound. The procedure: All compound treatments were performed with a preprepared 1000× stock of the desired concentration in DMSO and added directly to the relevant plate, with a final concentration of 0.1% DMSO on the cells. TNF (final concentration 575 pM) was added to induce necroptosis, the cells incubated for 4 h and harvested.
Cells were transferred to a microcentrifuge tube and centrifuged at 200g for 5 min, and media were removed. Cells were washed with PBS and lysed with 100 μL of lysis buffer (radioimmunoprecipitation assay lysis buffer, Sigma-Aldrich, R0278) supplemented with 1× phosphatase inhibitor cocktail 2 (Sigma, P5726) and 1× complete EDTA-free protease inhibitor cocktail (Sigma, […])) on ice for 30 min. The lysate was collected by centrifugation at 17,000g, 4 °C for 5 min, and the lysate was transferred to a new microcentrifuge tube. Protein concentration was determined using the DC Protein Assay (Bio-Rad) in a 96-well plate as per the manufacturer’s instructions and subsequently adjusted to 1 mg mL^–1 using lysis buffer. Samples were prepared by adding 4 μL of 4× loading buffer (Biorad, 161-0747) containing β-mercaptoethanol to 12 μL of protein sample and boiling at 95 °C for 10 min. 14 μL of each sample was loaded onto a 4–15% Mini-PROTEAN TGX precast gel (Biorad, 456-1086) and run in 1× running buffer (0.25 M Tris, 0.2 M glycine, 0.1% (w/v) SDS) for 1.15 h at 130 V. Either 2 μL of precision plus protein all blue prestained protein standards (Bio-Rad, 1610373) or precision plus protein dual color standards (Bio-Rad, 1610374) was used in at least one well.
Proteins were transferred onto a nitrocellulose membrane (GE Healthcare) using the Trans-Blot Turbo Transfer System (Biorad, 1704150) at 2.5 A and 25 V for 7 min. The membrane was stained with Ponceau S to confirm protein transfer prior to blocking with 5% (w/v) nonfat dried skimmed milk in TBS-T (1× Tris-buffered saline, 0.1% (v/v) Tween-20) at rt for 1 h. Staining with the desired primary antibody in 5% (w/v) nonfat dried skimmed milk in TBS-T was performed overnight at 4 °C. The blot was washed with TBS-T at rt (3 × 5 min) and stained with secondary antibody in 5% (w/v) nonfat dried skimmed milk in TBS-T for 1 h at rt. The blot was washed with TBS-T at rt (3 × 5 min), visualized with Immobilon Crescendo Western HRP substrate, and imaged using ImageQuant LAS-4000 Imaging System (Fujifilm), and the contrast normalized in Fiji.
(In general: In western blotting, separated proteins are transferred to a membrane and probed.)

Regarding `CN1C(=O)C(Cc2c[nH]c3ccccc23)NC1=S` (stereo not shown) [Nec-1, Necrostatin 1], at kinase domain of RIPK1 (1:1 fitting, 20 °C), the koff stood at 0.011 ± 0.002 s⁻¹ and the kon amounted to 260000 M⁻¹ s⁻¹. In addition, at kinase domain of RIPK1 (absence of Nec-1, read-out: Binding affinity (pKD) (converted)), the Kd is 0.0447 µM. In addition, the “phosphorylation of RIPK1 Ser166 after TNF” value in assay [1] was “blocked”.
